Residues, ends and D or L forms follow the SMILES beside them. *: point of attachment. Cbz = O=C(OCc1ccccc1)*
Row | SMILES | melting point [°C]
1 | Cc1c(NC(=O)CC(CSC(=O)[C@@H](C)NC(=O)C2CCCCC2)c2ccccc2)cccc1C(=O)O (some centres not stated) | 175 to 180
2 | CCOC(=O)/C(=N\OCC1CCCCC1)c1csc(N)n1 | 107 to 108
3 | COCCCCCCCCCCCC(N)=O | 83.9 to 85.6
4 | Cc1c(Cl)nc(-c2ccc([N+](=O)[O-])o2)nc1Cl | 174 to 175
5 | O=C1Nc2cc3c(cc2SC1CCCBr)OCO3 (configuration not stated) | 168 to 169
6 | COC(=O)c1sccc1S(=O)(=O)Nc1onc(C)c1Br | 188 to 194
7 | CC1CC2(C)C(CCC3C2CCC2(C)C(OCc4ccccc4)CCC32)CC1=O (configuration not stated) | 116 to 120
8 | NCCN1CCC(Nc2nc3ccccc3n2Cc2cccs2)CC1 | 137
9 | COc1cccc(C(O)CCN2CC=C(c3ccc(Cl)cc3)CC2)c1 (configuration not stated) | 100 to 102
10 | CC(=O)Nc1cccc(-c2cccnc2)c1 | 72 to 74
11 | COC=C1CCC(c2ccc(C(=O)OC)cc2)CC1 (configuration not stated) | 58
12 | CC(=O)N1OCC(=S)NC1c1ccccc1 (configuration not stated) | 172 to 174
13 | Nc1ccc(Cc2ccccn2)cc1[N+](=O)[O-] | 128 to 132
14 | CCCCN1CCc2c(C)nc3ncnn3c21 | 72 to 75
15 | CN(C)c1ccc(C(=O)NC2CCN(C(c3ccccc3)c3ccccc3)CC2)c(N)c1 | 118
16 | COc1ccc(C(=O)NCCCSc2ccncc2)cc1 | 121 to 122
17 | O=C(c1ccc(Cn2ccc3ccccc32)cc1)N1CCC(N2CCCC2)C1 (configuration not stated) | 141 to 153
18 | CCOc1ncc(C(C)=O)cc1C(=O)O | 117 to 118
19 | CCCc1c(C(=O)C(C)C)c2ccc(C(N)=O)cc2n1Cc1ccc(Br)cc1F | 197 to 198
20 | Oc1c(C2CCCC2)cc(C2CCCC2)cc1C1CCCC1 | 104
21 | O=C1c2ccccc2-n2cnc(Cl)c2[C@@H]2CCCN12 | 233 to 234
22 | Brc1ccc(-c2c(-c3ccccc3)c(-c3ccccc3)c(-c3ccccc3)c(-c3ccccc3)c2-c2ccc(Br)cc2)cc1 | 245
23 | O=C1NC(=O)c2c1cnc1[nH]ncc21 | 285 to 300

Row | SMILES | melting point [°C]
24 | c1cc2c(c(NC3=NCCO3)c1)CCCC2 | 101 to 103
25 | CCCc1n[nH]c(C(N)=O)c1N | 196 to 201
26 | N=C(N)NCCCC(NC(=O)C1CCCN1C(=O)OCc1ccccc1)C(=O)O (stereo not drawn) (Cbz-Pro-Arg-OH; configuration not given here) | 137 to 140
27 | N#CN1CCC(c2n[nH]c3cc(F)ccc23)CC1 | 143 to 145
28 | CN1C(=O)CN(C(=O)CN)C(c2ccccc2)c2cc(Cl)ccc21 (configuration not stated) | 158 to 160
29 | CC1OC(n2cnc(C(N)=O)c2CC#N)C(O)C1O (configuration not stated) | 173 to 174
30 | Cc1nc(N)nc(C)c1Br | 183 to 185
31 | O=C(O)C1CN(CCCS(=O)(=O)O)CCN1 (configuration not stated) | 190 to 191
32 | COc1cc(OC)nc(OC(C(=O)N[C@@H](C)C(=O)O)C(C)C)n1 (some centres not stated) | 157 to 160
33 | CC[C@H](C(N)=O)N1CCCC1=O | 115 to 117
34 | NCc1c(NC2CCCCC2)cccc1-c1ccccc1 | 95 to 96
35 | Fc1cc(F)c2c(c1)CC(n1cc[nH]c1=S)C2 (configuration not stated) | 185 to 186
36 | CC(COc1ccccc1)NC(=Nc1cccnc1)NC#N (configuration not stated) | 130 to 133
37 | OCc1cc(F)nc(F)c1F | 48 to 49
38 | CC(C)Cn1nc(-c2ccccc2)c(-c2ccccc2)c1CO | 154
39 | NP(N)(=O)NC(=O)c1ccsc1 | 269 to 278
40 | CC(C)CCCC(C)Cc1nc2c3ccsc3c3sccc3c2nc1CC(C)CCCC(C)C (configuration not stated) | 57.5 to 58.7
41 | NNc1nccc(-c2ccc(Oc3ccccc3)cc2)c1Cl | 173
42 | CCOc1nc(NCc2ccco2)nc(Nc2ccccc2-c2cccnc2)n1 | 90 to 92
43 | CN(CCN1CCNC1=C(C#N)C#N)Cc1ccc(CN2CCCCC2)o1 | 140 to 143
44 | C(=Cc1ccccc1)Cn1ccnc1 | 37 to 38
45 | CC(C)(C)CC(C)(C)c1cc(CO)c(O)c(CO)c1 | 76 to 77
46 | COC1(OC)CCC2=C3C(c4ccc(C5OCC(C)(C)CO5)cc4)CC4(C)C(=O)CCC4C3CCC2(O)C1 (configuration not stated) | 194 to 202

More lines, now with the values ahead:

Row | melting point [°C] | SMILES
47 | 198 | CC(N1C(=O)C(=O)N(c2ccc(C#N)cc2)C1=S)C(C)(C)C (configuration not stated)
48 | 244 to 246 | N#Cc1cnn2c(-c3cccc([N+](=O)[O-])c3)ccnc12
49 | 88 to 89 | COc1ccc(C=O)cc1OC(=O)CCl
50 | 245 to 247 | CCc1nc2c(N)nc3cc(OCC(=O)N4CCOCC4)ccc3c2n1CC1CCOCC1
51 | 97 to 98 | Cn1cnc2c1c(=O)n(CCCCCCOc1ccc(Cl)cc1)c(=O)n2C
52 | 157 to 159 | O=C(Nc1ccc(OCc2ccncc2)c2ccccc12)c1cc(F)cc(N2CCOCC2)c1
53 | 157 to 159 | CCCCc1ncc(CNC(C)(Cc2ccccc2)C(=O)O)n1Cc1ccccc1Cl (configuration not stated)
54 | 200 to 202 | COC(=O)c1nc(-c2ccc(Cl)c(OC)c2F)nc(N)c1F
55 | 83.1 to 111 | COCC1CCCN1CCC1CCN(c2nc(=O)c3c(C)c(OC)c(OC)cc3[nH]2)CC1 (configuration not stated)
56 | 142 to 145 | O=c1oc(=O)n(Cc2ccc(F)cc2)c2ccccc12
57 | 67 to 68 | CCS(=O)(=O)c1cc(OC)c(OC)c(C(=O)Cl)c1
58 | 153 | CCn1c(C)nc2cc(CN3CCN(C(c4ccccc4)c4ccccc4)CC3)ccc21
59 | 157 to 158 | CC1(C)Oc2ccc(S(=O)(=O)c3ccc(C#N)cc3)cc2C(O)C1Br (configuration not stated)
60 | 219 to 223 | CCCN1C(=O)CC(C)(C)c2cc(C)c(-c3cc(C=O)ccc3OC(F)(F)F)cc21
61 | 82 to 84 | CC1(C)CC(=O)C(C)(C)c2cc(C=O)ccc21
62 | 154 to 155 | CCCOc1ccc(Br)cc1-c1nc2cc3nc[nH]c3cc2c(=O)[nH]1
63 | 162 to 164 | COc1ccc(C2=NNC(=O)CS2)c(OC)c1
64 | 162 to 163 | Cc1cc(=O)oc2c(C)c3c(cc12)CCCO3
65 | 139 to 141 | CC(C)Oc1ccc(CCCOc2cc(CCC(=O)O)n(-c3ccccc3)n2)c(OCc2ccc(Cl)cc2Cl)c1

Row | melting point [°C] | SMILES
66 | 218 to 222 | C#Cc1cc(Nc2ncnc3cnc(F)cc23)ccc1Cl
67 | 128 to 130 | COC(=O)C1(S(=O)(=O)N2CC=C(c3ccc(Br)c(C)c3)CC2)CCOCC1
68 | 95 to 96 | CCOC(=O)C1CCc2c(n(C(C)=O)c3ccc(Cl)cc23)C1 (configuration not stated)
69 | 208 | Cc1cc(-n2ccnc2)c2cccc(OCc3c(Cl)ccc(S(=O)(=O)N4CCCC[C@H]4C(=O)O)c3Cl)c2n1
70 | 165 to 167 | CC(C)c1cccc(C(C)C)c1NC(=O)NCC1(c2ccc(N(C)C)cc2)O[C@H](C)[C@@H](C)O1
71 | 204 to 206 | CC1(C)OC(c2ccc(S(C)(=O)=O)cc2)=C(c2cc3ccccc3s2)C1=O
72 | 109 to 111 | CCc1c(-c2ccc(OC)cc2)c2ccc3cc(OC)cc1n32
73 | 233 to 238 | Cc1c(C)c(N2Cc3cc(Cl)c(Cl)cc3C2)c(C)c2c1OC(C)(C)C2c1ccc(F)cc1 (configuration not stated)
74 | 274 to 276 | CN1C(=O)C(=Cc2cc(O)c(O)c([N+](=O)[O-])c2)SC1=S
75 | 102 to 104 | CC1(C)CON(Cc2ccc(N3C(=O)C4=C(CCCC4)C3=O)cc2Cl)C1=O
76 | 178 to 183 | CC(=O)OC=C1CSC2C(NC(=O)Cc3ccccc3)C(=O)N2C1C(=O)OC(C)(C)C (configuration not stated)
77 | 216 to 218 | CN1C(=O)C(c2ccc(OC(F)F)cc2)(C23CC4CC(CC(C4)C2)C3)N=C1N (configuration not stated)
78 | 60.5 to 61.5 | FC(F)(F)C(F)(F)c1nc(-c2ccc(OCCCn3ccnc3)cc2)no1
79 | 138 to 140 | O=C1C(=O)c2ccccc2C2=C1SCC1(CCN(CC(O)COc3ccc(Cl)cc3)CC1)O2 (configuration not stated)
80 | 132 | NC(=O)c1ccc(F)c2c1CC(N(CCc1c[nH]c3ccc(F)cc13)CC1CC1)CO2 (configuration not stated)
81 | 90 to 91 | COCC1(N2C(=O)NC(=O)C2=O)C=CC=C(OC2CC(F)CC2Cl)C1 (configuration not stated)
82 | 219 to 220 | CSc1ccc(NC(=O)Nc2cc(-c3c(-c4ccc(F)c(C)c4)nc4cccnn34)ccn2)cc1
83 | 95 to 96 | COC(=O)c1ccc(C=O)c2ccccc12
84 | 138 | CC(=O)Cn1cnc2c1c(=O)n(CC1CC1)c(=O)n2Cc1ccccc1

Row | melting point [°C] | SMILES
85 | > 250 | CN1CC(=O)Nc2ccc(Cl)c(F)c2C1=O
86 | 305 to 307 | CN1CCN(c2cc(C(=O)Nc3ccc4c(c3)-c3c(c(C(N)=O)nn3-c3ccc5c(c3)OCO5)CC4)c(Cl)cn2)CC1
87 | 136 to 138 | C=CCn1nnc2cc(F)c(-n3c(=O)cc(C(F)(F)F)n(C)c3=O)cc21
88 | 53 to 56 | CCOC(=O)c1c(Cl)nc(CC)n1Cc1ccc2oc(-c3ccccc3N)c(Br)c2c1
89 | 215 to 218 | CC(=O)OCC1Cn2cc(C(=O)NCc3ccc(Cl)cc3)c(=O)c3cc(CN4CCOCC4)cc(c32)O1 (configuration not stated)
90 | 164 to 165 | O=C(NCCCCCCCCNC(=O)c1ccc(OC(F)(F)F)cc1)c1ccc(OC(F)(F)F)cc1
91 | 207 to 209 | Cc1cc(OC(F)F)ccc1NC(=O)c1cccc(I)c1C(=O)NC(C)C
92 | 280 to 285 | O=C1OC(P(=O)(O)C2OC(=O)c3ccccc32)c2ccccc21 (configuration not stated)
93 | 155 to 156 | CCOC(=O)N1CCC(=C2c3ccc(Cl)cc3C=Cc3cccnc32)CC1
94 | 138 to 140 | CCCCOCCOc1ccc(-c2ccc(N3CC=CC3)c(C=C(C)C(=O)O)c2)cc1
95 | 113 to 116 | CCOC(=O)COc1cc(OCC(=O)OCC)c2c(C)c(Cc3ccccc3)c(=O)n(Cc3ccccc3)c2c1
96 | 127 to 129 | Cc1ccccc1-c1cc(C#N)cc2c1OC(CN)C2 (configuration not stated)
97 | 187 to 189 | C=CCOC(=O)c1cccc(S(=O)(=O)n2c(=O)[nH]c(=O)c3ccc(Cl)cc32)c1
98 | 163 to 165 | COc1cc(OC)cc(-c2ncoc2-c2ccc(OC)c(N)c2)c1
99 | 60 to 62 | CCCCOC(=O)c1nc(Cl)c2cc(OC(C)C)ccc2c1O
100 | 297 | COc1ccc(-c2[nH]nc3c2C(=O)c2c(NC(=O)Cc4ccc5c(c4)OCCO5)cccc2-3)cc1
101 | 183 to 184 | CC(C)C1=NC(c2ccccc2)=NC(c2ccc(F)cc2)C1=CO (configuration not stated)
102 | 196 to 197 | COCCNC(=NC#N)Nc1ccc(C2=NNC(=O)CC2C)cc1 (configuration not stated)
